Results: ChEMBL document CHEMBL1201862, “PubChem BioAssay data set” (2004)
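Method: 48-hour compound exposure of cells in 96-well plates, five concentrations, linear interpolation of endpoints. GI50 is the concentration that inhibits growth by half.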 The source made the active and inactive calls. Rule as the data show it: active = GI50 up to about 1.1 µM and inactive = higher.

How the values were obtained:
Experiment in all cases: NCI anticancer screen, dose series, 48 h
786-0 = test system: 786-0
A549 = test system: A549
ACHN = test system: ACHN
BT-549 = test system: BT-549
CAKI-1 = test system: CAKI-1
CCRF-CEM = test system: CCRF-CEM
COLO 205 = test system: COLO 205
DU-145 = test system: DU-145
EKVX = test system: EKVX
HCC 2998 = test system: HCC 2998
HCT-116 = test system: HCT-116
HCT-15 = test system: HCT-15
HL-60 = test system: HL-60
HOP-62 = test system: HOP-62
HOP-92 = test system: HOP-92
HT-29 = test system: HT-29
Hs-578T = test system: Hs-578T
IGROV-1 = test system: IGROV-1
K562 = test system: K562
KM12 = test system: KM12
LOX IMVI = test system: LOX IMVI
M14 = test system: M14
MCF7 = test system: MCF7
MDA-MB-231 = test system: MDA-MB-231
MDA-MB-435 = test system: MDA-MB-435
MDA-N = test system: MDA-N
MOLT-4 = test system: MOLT-4
Malme-3M = test system: Malme-3M
NCI-H23 = test system: NCI-H23
NCI-H460 = test system: NCI-H460
NCI-H522 = test system: NCI-H522
NCI/ADR-RES = test system: NCI/ADR-RES
OVCAR-3 = test system: OVCAR-3
OVCAR-4 = test system: OVCAR-4
OVCAR-5 = test system: OVCAR-5
OVCAR-8 = test system: OVCAR-8
PC-3 = test system: PC-3
RPMI-8226 = test system: RPMI-8226
SF-268 = test system: SF-268
SF-295 = test system: SF-295
SF-539 = test system: SF-539
SK-MEL-28 = test system: SK-MEL-28
SK-MEL-2 = test system: SK-MEL-2
SK-MEL-5 = test system: SK-MEL-5
SK-OV-3 = test system: SK-OV-3
SN12C = test system: SN12C
SNB-19 = test system: SNB-19
SNB-75 = test system: SNB-75
SR = test system: SR
SW-620 = test system: SW-620
T47D = test system: T47D
TK-10 = test system: TK-10
U-251 = test system: U-251
UACC-257 = test system: UACC-257
UACC-62 = test system: UACC-62
UO-31 = test system: UO-31
A498 = test system: A498
NCI-H226 = test system: NCI-H226
RXF 393 = test system: RXF 393

For O=C(CN1CCCCC1)Nc1ccc2sc3ccccc3c(=O)c2n1, the GI50 (786-0) was 12.9 µM (inactive), the GI50 (A549) was 15 µM (inactive) and the GI50 (ACHN) was 14.2 µM (inactive). The GI50 (BT-549) was 19.3 µM (inactive), the GI50 (CAKI-1) was 13.6 µM (inactive) and the GI50 (CCRF-CEM) was 5.92 µM (inactive). The GI50 (COLO 205) was 10.8 µM (inactive), the GI50 (DU-145) was 20.3 µM (inactive) and the GI50 (EKVX) was 22.7 µM (inactive). The GI50 (HCC 2998) was 14.8 µM (inactive), the GI50 (HCT-116) was 9.23 µM (inactive) and the GI50 (HCT-15) was 12.2 µM. The GI50 (HL-60) was 17.1 µM (inactive), the GI50 (HOP-62) was 13.8 µM (inactive) and the GI50 (HOP-92) was 15.1 µM (inactive). For the same molecule, the GI50 (HT-29) was 30.3 µM (inactive), the GI50 (Hs-578T) was 18.8 µM (inactive) and the GI50 (IGROV-1) was 16 µM (inactive). The GI50 (K562) was 5.36 µM (inactive), the GI50 (KM12) was 19.1 µM (inactive) and the GI50 (LOX IMVI) was 7.01 µM (inactive). For the same molecule, the GI50 (M14) was 17.9 µM (inactive), the GI50 (MCF7) was 19.5 µM (inactive) and the GI50 (MDA-MB-231) was 18.5 µM (inactive). The GI50 (MDA-MB-435) was 13.1 µM (inactive), the GI50 (MDA-N) was 13.4 µM (inactive) and the GI50 (MOLT-4) was 2.69 µM (inactive). The GI50 (Malme-3M) was 32.1 µM (inactive), the GI50 (NCI-H23) was 16.9 µM (inactive) and the GI50 (NCI-H460) was 13.2 µM (inactive). The GI50 (NCI-H522) was 6.44 µM (inactive), the GI50 (NCI/ADR-RES) was 7.82 µM (inactive) and the GI50 (OVCAR-3) was 31.5 µM (inactive). For the same molecule, the GI50 (OVCAR-4) was 30.1 µM (inactive), the GI50 (OVCAR-5) was 18.2 µM (inactive) and the GI50 (OVCAR-8) was 13.7 µM (inactive). For the same molecule, the GI50 (PC-3) was 10.9 µM (inactive), the GI50 (RPMI-8226) was 13.1 µM (inactive) and the GI50 (SF-268) was 24.2 µM (inactive). The GI50 (SF-295) was 15 µM (inactive), the GI50 (SF-539) was 16.4 µM (inactive) and the GI50 (SK-MEL-28) was 17.3 µM (inactive). For the same molecule, the GI50 (SK-MEL-2) was 18.6 µM (inactive), the GI50 (SK-MEL-5) was 15.8 µM (inactive) and the GI50 (SK-OV-3) was 21.3 µM (inactive). For the same molecule, the GI50 (SN12C) was 12.5 µM (inactive), the GI50 (SNB-19) was 19.9 µM (inactive) and the GI50 (SNB-75) was 15.2 µM (inactive). The GI50 (SR) was 21.5 µM (inactive), the GI50 (SW-620) was 5.25 µM (inactive) and the GI50 (T47D) was 27.2 µM (inactive). For the same molecule, the GI50 (TK-10) was 19.1 µM (inactive), the GI50 (U-251) was 16.6 µM (inactive) and the GI50 (UACC-257) was 18.2 µM (inactive). The GI50 (UACC-62) was 15.4 µM (inactive) and the GI50 (UO-31) was 9.95 µM (inactive).
In the case of CSc1[nH]nc(N)c1C(=O)Nc1ccccc1, the GI50 (786-0) is reported as > 100 µM (inactive), the GI50 (A498) is reported as > 100 µM (inactive) and the GI50 (A549) is reported as > 100 µM (inactive). The GI50 (BT-549) was > 100 µM (inactive), the GI50 (CAKI-1) was > 100 µM (inactive) and the GI50 (CCRF-CEM) was > 100 µM (inactive). For the same molecule, the GI50 (COLO 205) was > 100 µM (inactive), the GI50 (DU-145) was > 100 µM (inactive) and the GI50 (EKVX) was > 100 µM (inactive). The GI50 (HCC 2998) was > 100 µM (inactive), the GI50 (HCT-116) was > 100 µM (inactive) and the GI50 (HCT-15) was greater than 100 µM. The GI50 (HL-60) was > 100 µM (inactive), the GI50 (HT-29) was > 100 µM (inactive) and the GI50 (Hs-578T) was > 100 µM (inactive). For the same molecule, the GI50 (IGROV-1) was > 100 µM (inactive), the GI50 (K562) was > 100 µM (inactive) and the GI50 (KM12) was > 100 µM (inactive). The GI50 (LOX IMVI) was > 100 µM (inactive), the GI50 (M14) was > 100 µM (inactive) and the GI50 (MCF7) was > 100 µM (inactive). The GI50 (MDA-MB-231) was > 100 µM (inactive), the GI50 (MDA-MB-435) was > 100 µM (inactive) and the GI50 (MDA-N) was > 100 µM (inactive). For the same molecule, the GI50 (MOLT-4) was > 100 µM (inactive), the GI50 (Malme-3M) was > 100 µM (inactive) and the GI50 (NCI-H226) was > 100 µM (inactive). For the same molecule, the GI50 (NCI-H23) was > 100 µM (inactive), the GI50 (NCI-H460) was > 100 µM (inactive) and the GI50 (NCI-H522) was 52.4 µM (inactive). For the same molecule, the GI50 (NCI/ADR-RES) was > 100 µM (inactive), the GI50 (OVCAR-3) was > 100 µM (inactive) and the GI50 (OVCAR-4) was > 100 µM (inactive). The GI50 (OVCAR-5) was > 100 µM (inactive), the GI50 (OVCAR-8) was > 100 µM (inactive) and the GI50 (PC-3) was > 100 µM (inactive). The GI50 (RPMI-8226) was > 100 µM (inactive), the GI50 (RXF 393) was > 100 µM (inactive) and the GI50 (SF-268) was > 100 µM (inactive). The GI50 (SF-539) was > 100 µM (inactive), the GI50 (SK-MEL-28) was > 100 µM (inactive) and the GI50 (SK-MEL-2) was > 100 µM (inactive). The GI50 (SK-MEL-5) was > 100 µM (inactive), the GI50 (SK-OV-3) was > 100 µM (inactive) and the GI50 (SN12C) was > 100 µM (inactive). The GI50 (SNB-19) was > 100 µM (inactive), the GI50 (SNB-75) was > 100 µM (inactive) and the GI50 (SR) was > 100 µM (inactive). For the same molecule, the GI50 (SW-620) was > 100 µM (inactive), the GI50 (T47D) was > 100 µM (inactive) and the GI50 (TK-10) was > 100 µM (inactive). For the same molecule, the GI50 (U-251) was > 100 µM (inactive), the GI50 (UACC-257) was > 100 µM (inactive) and the GI50 (UACC-62) was > 100 µM (inactive). For the same molecule, the GI50 (UO-31) was > 100 µM (inactive).
For O=C(O)CN1CCNCCN(CC(=O)O)CCN(CC(=O)O)CCNCC1, the GI50 (786-0) was 93.3 µM (inactive), the GI50 (A498) was 71.9 µM (inactive) and the GI50 (A549) was > 100 µM (inactive). For the same molecule, the GI50 (ACHN) was > 100 µM (inactive), the GI50 (BT-549) was > 100 µM (inactive) and the GI50 (CAKI-1) was > 100 µM (inactive). For the same molecule, the GI50 (CCRF-CEM) was > 100 µM (inactive), the GI50 (COLO 205) was 64.1 µM (inactive) and the GI50 (DU-145) was > 100 µM (inactive). For the same molecule, the GI50 (EKVX) was > 100 µM (inactive), the GI50 (HCT-116) was 35.2 µM (inactive) and the GI50 (HCT-15) was 61.9 µM. The GI50 (HL-60) was 25.9 µM (inactive), the GI50 (HOP-62) was > 100 µM (inactive) and the GI50 (HOP-92) was > 100 µM (inactive). The GI50 (HT-29) was 26.7 µM (inactive), the GI50 (Hs-578T) was > 100 µM (inactive) and the GI50 (IGROV-1) was > 100 µM (inactive). For the same molecule, the GI50 (K562) was 85.3 µM (inactive), the GI50 (KM12) was > 100 µM (inactive) and the GI50 (LOX IMVI) was 91.2 µM (inactive). The GI50 (M14) was > 100 µM (inactive), the GI50 (MCF7) was 69.8 µM (inactive) and the GI50 (MDA-MB-231) was > 100 µM (inactive). For the same molecule, the GI50 (MDA-MB-435) was > 100 µM (inactive), the GI50 (MDA-N) was > 100 µM (inactive) and the GI50 (MOLT-4) was 83.6 µM (inactive). For the same molecule, the GI50 (Malme-3M) was > 100 µM (inactive), the GI50 (NCI-H226) was > 100 µM (inactive) and the GI50 (NCI-H460) was 68.7 µM (inactive). For the same molecule, the GI50 (NCI-H522) was 18.2 µM (inactive), the GI50 (NCI/ADR-RES) was 23.3 µM (inactive) and the GI50 (OVCAR-3) was 76 µM (inactive). The GI50 (OVCAR-4) was > 100 µM (inactive), the GI50 (OVCAR-5) was 97.7 µM (inactive) and the GI50 (OVCAR-8) was 96.2 µM (inactive). The GI50 (PC-3) was > 100 µM (inactive), the GI50 (RPMI-8226) was > 100 µM (inactive) and the GI50 (SF-295) was > 100 µM (inactive). The GI50 (SF-539) was 63.7 µM (inactive), the GI50 (SK-MEL-28) was > 100 µM (inactive) and the GI50 (SK-MEL-2) was > 100 µM (inactive). The GI50 (SK-MEL-5) was > 100 µM (inactive), the GI50 (SK-OV-3) was > 100 µM (inactive) and the GI50 (SN12C) was > 100 µM (inactive). The GI50 (SNB-19) was > 100 µM (inactive), the GI50 (SNB-75) was 63.4 µM (inactive) and the GI50 (SR) was 61.1 µM (inactive). For the same molecule, the GI50 (SW-620) was 41.5 µM (inactive), the GI50 (T47D) was > 100 µM (inactive) and the GI50 (TK-10) was > 100 µM (inactive). The GI50 (U-251) was > 100 µM (inactive), the GI50 (UACC-257) was > 100 µM (inactive) and the GI50 (UACC-62) was 84.7 µM (inactive). For the same molecule, the GI50 (UO-31) was > 100 µM (inactive).
